Common to all, as to assay: NCI-60 cell line screen, 48 h
Assay [1] concerns MDA-MB-435.
For assay [2], the system named is DU-145.
Assay [3] relates to CCRF-CEM.
Assay [4] relates to SK-MEL-2.
The subject of assay [5] is SK-MEL-28.
Assay [6] relates to A498.
The subject of assay [7] is OVCAR-8.
Assay [8] has as its system RPMI-8226.
The test system of assay [9] is COLO 205.
The subject of assay [10] is SW-620.
For assay [11], the system named is SK-MEL-5.
The subject of assay [12] is MOLT-4.
Assay [13] relates to OVCAR-3.
Assay [14] concerns SN12C.
Assay [15] relates to SK-OV-3.
Assay [16] deals with UACC-257.
For assay [17], the system named is OVCAR-5.
The test system of assay [18] is NCI-H23.
Assay [19] has as its system HCC 2998.
Assay [20] relates to SNB-19.

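Protocol summary: plate cells (96-well), add compound at 5 concentrations, incubate 48 h, interpolate endpoints linearly. Here, GI50 denotes the concentration required for 50% inhibition of growth.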 Calls of active or inactive are those of the source. Rule as the data show it: active = GI50 up to about 1.1 µM and inactive = higher. Residues, ends and D or L forms follow the SMILES beside them.

With `O=Cc1[nH]c(=O)[nH]c(=O)c1CCl`, the GI50 in [1] is > 100 µM (inactive); in [2] it was > 100 µM (inactive); in assay [3], > 52.7 µM (inactive); in [4], > 90.2 µM (inactive); in assay [5] it was > 100 µM (inactive); in assay [6], > 100 µM (inactive). The GI50 was > 82.4 µM (inactive) in [7]; > 48.6 µM (inactive) in assay [8]; > 62.7 µM (inactive) in assay [9]; 38.7 µM (inactive) in assay [10]; > 82 µM (inactive) in assay [11]; > 96.8 µM (inactive) in assay [12]. Besides, the GI50 in assay [13], in [14], in [15], in assay [16], in assay [17] and in assay [18] was > 100 µM (inactive) each time. The GI50 in assay [19] and in [20] was > 100 µM (inactive) in each case.
For the molecule `O=C(O)Cc1cccnc1`, the GI50 in assay [1], in assay [2], in assay [3], in [4], in assay [5] and in [6] was > 100 µM (inactive) each time. Besides, the GI50 in assay [7], in assay [8], in assay [9], in assay [10], in assay [11] and in assay [12] was > 100 µM (inactive) in each case. Besides, the GI50 in assay [13], in assay [14], in [15], in assay [16], in [17] and in [18] was > 100 µM (inactive) each time. Besides, the GI50 in assay [19] and in assay [20] was > 100 µM (inactive) in each case.
As for `CC(=O)NC(CO)C(=O)NC(Cc1ccc(O)cc1)C(=O)NCC(N)=O` (stereo not drawn) (Ac-Ser-Tyr-Gly-NH2; configuration not given here), the GI50 in assay [1], in [2], in [3], in assay [4], in assay [5] and in assay [6] was > 100 µM (inactive) in each case. For the same molecule, the GI50 in assay [7], in assay [8], in assay [9], in assay [10], in [11] and in [12] was > 100 µM (inactive) in each case. The GI50 in assay [13], in assay [14], in assay [15], in assay [16], in assay [17] and in assay [18] was > 100 µM (inactive) throughout. The GI50 in assay [19] and in assay [20] was > 100 µM (inactive) each time.
As to `COC(=O)CCC1=NCC(C)(C)O1`, the GI50 in assay [1], in assay [2], in assay [3], in [4], in assay [5] and in assay [6] was > 10 µM (inactive) in each case. Further, the GI50 in [7], in assay [8], in assay [9], in [10], in assay [11] and in [12] was > 10 µM (inactive) each time. The GI50 in assay [13], in assay [14], in [15], in [16], in [17] and in assay [18] was > 10 µM (inactive) each time. The GI50 in assay [19] and in assay [20] was > 10 µM (inactive) in each case.
On to `Nc1ncnc2c1ncn2[C@@H]1C[C@H](NO)[C@@H](O)[C@H]1O`, for which the GI50 was > 100 µM (inactive) in assay [1]; > 100 µM (inactive) in [2]; 22.3 µM (inactive) in assay [3]; > 100 µM (inactive) in [4]; > 100 µM (inactive) in assay [5]; > 100 µM (inactive) in assay [6]. Besides, the GI50 is > 100 µM (inactive) in assay [7]; 10.8 µM (inactive) in assay [8]; > 100 µM (inactive) in assay [9]; 26.9 µM (inactive) in [10]; > 100 µM (inactive) in [11]; 83.4 µM (inactive) in assay [12]. Besides, the GI50 in assay [13], in [14], in assay [15], in assay [16], in assay [17] and in assay [18] was > 100 µM (inactive) throughout. Further, the GI50 in assay [19] and in assay [20] was > 100 µM (inactive) in each case.
As to `Cc1nc2c(nc1C)-c1c(c3c(n1C)C(=O)CCC3)C(=O)C2=O`, the GI50 is 0.174 µM (active) in assay [1]; 0.592 µM (active) in assay [2]; 0.219 µM (active) in [3]; 0.571 µM (active) in assay [4]; 0.622 µM (active) in assay [5]; 0.984 µM (active) in [6]. For the same molecule, the GI50 is 0.236 µM (active) in [7]; 0.194 µM (active) in assay [8]; 1.75 µM (inactive) in assay [9]; 0.214 µM (active) in [10]; 0.406 µM (active) in [11]; 0.312 µM (active) in assay [12]. Besides, the GI50 in assay [13] is 0.156 µM (active); in [14], 0.216 µM (active); in assay [15], 1.27 µM (inactive); in assay [16], 1.4 µM (inactive); in assay [17] it was 0.953 µM (active); in assay [18], 0.743 µM (active). In addition, the GI50 in assay [19] is 1.61 µM (inactive); in assay [20] it was 0.873 µM (active).
Regarding `CC1C(O)Oc2cc3c(cc2C1c1ccccc1O)OCO3` (stereo not given), the GI50 in assay [1] is 29.9 µM (inactive); in assay [2], 40.6 µM (inactive); in [3], 16.7 µM (inactive); in assay [4], 25.9 µM (inactive); in assay [5], 25.8 µM (inactive); in assay [6], 29.6 µM (inactive). For the same molecule, the GI50 in assay [7] was 36.5 µM (inactive); in assay [8] it was 16.7 µM (inactive); in assay [9] it was 16.2 µM (inactive); in assay [10] it was 39.1 µM (inactive); in assay [11], 33.3 µM (inactive); in assay [12], 19.3 µM (inactive). For the same molecule, the GI50 in assay [13] is 27.8 µM (inactive); in [14], 39.2 µM (inactive); in [15] it was 39.9 µM (inactive); in [16], 30.1 µM (inactive); in [17] it was 45.7 µM (inactive); in assay [18], 46.1 µM (inactive). Moreover, the GI50 in [19] was 38.5 µM (inactive); in [20], 51.6 µM (inactive).
As for `C/C(=C\COc1ccc2ccc(=O)oc2c1)C1=CC(=O)C(C)(C)O1` [GEIPARVARIN], the GI50 was 3.48 µM (inactive) in assay [1]; 2.53 µM (inactive) in assay [2]; 1.51 µM (inactive) in assay [3]; 3.66 µM (inactive) in [4]; 4.23 µM (inactive) in assay [5]; 4.6 µM (inactive) in assay [6]. In addition, the GI50 in [7] was 7.11 µM (inactive); in assay [8], 2.04 µM (inactive); in [9], 4.14 µM (inactive); in [10], 3.43 µM (inactive); in assay [11], 3.45 µM (inactive); in [12] it was 4.14 µM (inactive). For the same molecule, the GI50 in [13] was 3.7 µM (inactive); in assay [14], 3.94 µM (inactive); in assay [15] it was 7.87 µM (inactive); in assay [16] it was 4.69 µM (inactive); in [17], 10.2 µM (inactive); in assay [18], 3.29 µM (inactive). For the same molecule, the GI50 in assay [19] was 3.94 µM (inactive); in assay [20], 6.15 µM (inactive).
For the molecule `CCN1C(=O)c2ccccc2C1(O)c1ccc(Cl)cc1` (stereo not given), the GI50 in assay [1] was 83.2 µM (inactive); in assay [2], 80.2 µM (inactive); in assay [3], 59.8 µM (inactive); in assay [4], 18.7 µM (inactive); in assay [5], 94 µM (inactive); in [6], > 100 µM (inactive). Moreover, the GI50 in assay [7] was 52.8 µM (inactive); in [8], 61.9 µM (inactive); in assay [9], 35.6 µM (inactive); in assay [10] it was > 100 µM (inactive); in assay [11], 31.6 µM (inactive); in assay [12], 47.3 µM (inactive). Also, the GI50 is 31.1 µM (inactive) in assay [13]; > 100 µM (inactive) in [14]; 24.4 µM (inactive) in assay [15]; 75.5 µM (inactive) in [16]; 88.1 µM (inactive) in assay [17]; 38.2 µM (inactive) in assay [18]. Moreover, the GI50 is > 100 µM (inactive) in assay [19] and 20.7 µM (inactive) in assay [20].
Consider `CC(NC(=N)N)C(=O)O` (stereo not given), for which the GI50 in [1], in assay [2], in assay [3], in [4], in [5] and in [6] was > 100 µM (inactive) throughout. The GI50 in [7], in assay [8], in assay [9], in assay [10], in [11] and in assay [12] was > 100 µM (inactive) in each case. Also, the GI50 in assay [13], in [14], in assay [15], in [16], in assay [17] and in [18] was > 100 µM (inactive) throughout. Besides, the GI50 in [19] and in [20] was > 100 µM (inactive) each time.

The values above are taken from ChEMBL document CHEMBL1201862, “PubChem BioAssay data set” (2004).
